Source: patent US10254290B2, “Systems and methods for identifying protein stabilizers” (The University of Kansas, priority 2012, dated 2019)

Assays:
GroEL chaperonin = GroEL chaperonin (Escherichia coli, UniProt P0A6F5); assay: Binding of the substance to the chaperonin itself
CFTR = CFTR (Homo sapiens, UniProt P13569); assay: BLI chaperonin (GroEL) binding to antibody-captured CFTR, with or without stabilizer (scheme of FIG. 9); conditions: compared with chaperonin alone and buffer signal
Text: In one embodiment, a linker antibody (e.g., anti-mouse antibody) can be attached to the substrate, which is then introduced to a capture antibody (e.g., CFTR antibody), and which is then introduced to a target protein (e.g., cystic fibrosis transmembrane conductance regulator, CFTR). In some instances the capture antibody can be linked directly to the substrate or through a suitable linker. However, the linker antibody can position the capture antibody a suitable distance from the substrate by antibody extension. If no stabilizer is present, a chaperonin (e.g., GroEL) can bind with the target protein to provide a large signal.
As shown, a substrate 202 has an anti-mouse antibody 906 bound thereto. Then, a CFTR antibody 908 is associated with the anti-mouse antibody 906. CFTR 910 is then introduce to and bound with the CFTR antibody 908 before a chaperonin 914 (e.g., GroEL) is introduced to the CFTR/CFTR antibody complex. […] When there is no stabilizer C, the chaperonin 514 binds with the CFTR/CFTR antibody complex to form complex 920 and to produce a large signal. When the stabilizer C is present, there is a decreased binding signal to indicate that the chaperonin cannot bind with the CFTR/CFTR antibody complex. […]

CFTR-NBD1 = CFTR-NBD1 (Homo sapiens, UniProt P13569); assay: GroEL binding to CFTR-NBD1 bound directly to the substrate; conditions: CFTR-NBD1 introduced to GTP prior to GroEL
Chain of CFTR-NBD1 (P13569 423-646 limits assumed): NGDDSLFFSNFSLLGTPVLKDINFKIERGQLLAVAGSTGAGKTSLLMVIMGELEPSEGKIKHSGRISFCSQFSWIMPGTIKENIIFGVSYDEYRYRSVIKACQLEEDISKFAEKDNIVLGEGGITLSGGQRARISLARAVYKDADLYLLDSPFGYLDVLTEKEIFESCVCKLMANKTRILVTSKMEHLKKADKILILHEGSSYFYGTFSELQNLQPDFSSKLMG
Text: Additionally, the CFTR nucleotide binding domain (e.g., CFTR-NBD1) may be bound directly to the substrate, which is then introduced to a GroEL buffer. […] When the CFTR-NBD1 is not introduced to GTP prior to being introduced to GroEL, there is a much higher single. Other substances besides GTP can also be screen to identify inhibitors of forming the CFTR-NBD1/GroEL complex.

[1] = biological target: T1, dihydrofolate reductase (DHFR) (Homo sapiens, UniProt P00374); assay: Control experiment: biotinylated GroEL chaperonin on a BLI substrate dipped into a DHFR solution; assay type: binding
T1 sequence (P00374 1-187): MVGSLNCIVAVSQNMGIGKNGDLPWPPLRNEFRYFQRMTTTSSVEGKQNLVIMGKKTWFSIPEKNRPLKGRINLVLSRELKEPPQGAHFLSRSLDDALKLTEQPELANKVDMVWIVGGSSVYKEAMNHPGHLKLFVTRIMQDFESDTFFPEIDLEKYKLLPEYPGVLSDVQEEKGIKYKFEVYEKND
Text: The chaperonin can bind particular target proteins as they transiently expose hydrophobic surfaces from their partially folded forms. The partitioning kinetics can be followed using the BLI high throughput system (Fortebio Octet™) or SPR or other suitable technology. With BLI as an example, the chaperonin can be attached to the BLI tip substrate to dip into a target protein solution. Alternatively, the capture protein and/or target protein can be attached to the BLI tip substrate to dip into a chaperonin solution. The chaperonin will bind with transitioned target proteins (e.g., second conformation), but has no or low binding with folded target proteins (e.g., first conformation). […] Potential protein stabilizers can be screened to see which ones inhibit the chaperonin from binding to the target protein by the stabilizer retaining the protein in the first conformation. In the presence of a potential protein stabilizer, the partitioning kinetic amplitudes show significant declines (e.g., inhibition of partitioning) or even abolish global partitioning, which is scored as a potential lead compound. Once identified, potential protein stabilizer compounds can be further tested with target proteins in secondary screens. […]

Chain of CFTR (P13569 whole entry, species assumed): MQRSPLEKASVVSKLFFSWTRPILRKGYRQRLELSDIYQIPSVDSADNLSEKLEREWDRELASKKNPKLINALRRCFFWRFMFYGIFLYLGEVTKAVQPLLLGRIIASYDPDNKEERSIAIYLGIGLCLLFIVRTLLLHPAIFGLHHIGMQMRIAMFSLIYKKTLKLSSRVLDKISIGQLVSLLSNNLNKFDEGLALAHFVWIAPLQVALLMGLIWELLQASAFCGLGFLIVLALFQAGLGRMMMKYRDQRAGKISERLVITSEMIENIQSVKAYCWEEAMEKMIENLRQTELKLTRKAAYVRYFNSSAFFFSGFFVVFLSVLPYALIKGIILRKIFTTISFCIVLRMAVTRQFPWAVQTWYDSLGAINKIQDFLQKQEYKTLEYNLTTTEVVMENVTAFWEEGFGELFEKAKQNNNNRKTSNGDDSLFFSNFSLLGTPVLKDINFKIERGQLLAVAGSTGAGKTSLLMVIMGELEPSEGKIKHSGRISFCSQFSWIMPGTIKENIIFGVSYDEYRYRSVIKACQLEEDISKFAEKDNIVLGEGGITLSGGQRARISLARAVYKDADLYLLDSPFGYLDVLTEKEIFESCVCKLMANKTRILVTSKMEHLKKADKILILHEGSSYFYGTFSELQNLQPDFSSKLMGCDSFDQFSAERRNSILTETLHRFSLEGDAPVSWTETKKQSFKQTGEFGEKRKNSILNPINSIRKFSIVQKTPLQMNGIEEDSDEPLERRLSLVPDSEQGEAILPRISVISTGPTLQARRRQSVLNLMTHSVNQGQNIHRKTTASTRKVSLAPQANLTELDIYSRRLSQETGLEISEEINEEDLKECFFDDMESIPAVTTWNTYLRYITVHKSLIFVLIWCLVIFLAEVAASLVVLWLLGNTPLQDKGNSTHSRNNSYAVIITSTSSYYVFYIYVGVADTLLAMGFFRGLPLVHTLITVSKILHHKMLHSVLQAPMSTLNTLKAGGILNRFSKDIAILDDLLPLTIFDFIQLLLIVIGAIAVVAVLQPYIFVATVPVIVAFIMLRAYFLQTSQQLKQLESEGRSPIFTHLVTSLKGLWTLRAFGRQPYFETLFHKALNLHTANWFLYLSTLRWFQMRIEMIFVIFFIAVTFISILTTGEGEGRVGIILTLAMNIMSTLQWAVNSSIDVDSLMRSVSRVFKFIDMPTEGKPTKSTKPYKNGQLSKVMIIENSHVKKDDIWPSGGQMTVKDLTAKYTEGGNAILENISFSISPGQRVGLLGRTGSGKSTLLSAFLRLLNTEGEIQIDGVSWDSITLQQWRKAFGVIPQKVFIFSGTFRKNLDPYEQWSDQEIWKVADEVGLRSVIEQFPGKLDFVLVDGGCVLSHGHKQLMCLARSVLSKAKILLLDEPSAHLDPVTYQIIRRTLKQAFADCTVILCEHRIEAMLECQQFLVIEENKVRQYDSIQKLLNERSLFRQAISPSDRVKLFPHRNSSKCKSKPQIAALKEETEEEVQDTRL
Chain of GroEL chaperonin (P0A6F5 2-548): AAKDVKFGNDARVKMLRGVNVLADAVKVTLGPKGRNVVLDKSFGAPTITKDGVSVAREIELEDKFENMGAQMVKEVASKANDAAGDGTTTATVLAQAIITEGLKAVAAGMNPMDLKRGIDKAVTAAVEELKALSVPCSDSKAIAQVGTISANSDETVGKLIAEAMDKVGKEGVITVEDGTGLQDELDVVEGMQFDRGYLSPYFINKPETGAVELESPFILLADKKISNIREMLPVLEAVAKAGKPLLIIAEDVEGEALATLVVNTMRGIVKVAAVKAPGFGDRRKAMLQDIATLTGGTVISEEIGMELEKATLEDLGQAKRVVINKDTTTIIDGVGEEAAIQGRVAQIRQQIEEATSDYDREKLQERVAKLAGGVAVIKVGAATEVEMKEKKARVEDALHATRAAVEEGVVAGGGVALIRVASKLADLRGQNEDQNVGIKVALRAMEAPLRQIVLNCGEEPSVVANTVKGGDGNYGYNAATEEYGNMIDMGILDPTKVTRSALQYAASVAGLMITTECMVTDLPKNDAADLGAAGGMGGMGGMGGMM

Row | Compound | binding to the GroEL chaperonin (GroEL chaperonin) | chaperonin binding signal (stabilization of CFTR) (CFTR) | signal of GroEL binding to CFTR-NBD1 (CFTR-NBD1) | signal of GroEL-DHFR interaction ([1]; BLI, NADPH e.g. 10 mM) | signal of GroEL-DHFR interaction, combination ([1]; combination of GroEL and DHFR and 10 mM NADPH)
1 | Nc1nc2c(ncn2[C@@H]2O[C@H](COP(=O)(O)OP(=O)(O)OP(=O)(O)O)[C@@H](O)[C@H]2O)c(=O)[nH]1 [GTP, guanosine triphosphate] | does not bind | decreased the chaperonin binding and decreased the signal | no signal or a low single |  | 
2 | NC(=O)C1=CN([C@@H]2O[C@H](COP(=O)(O)OP(=O)(O)OC[C@H]3O[C@@H](n4cnc5c(N)ncnc54)[C@H](OP(=O)(O)O)[C@@H]3O)[C@@H](O)[C@H]2O)C=CC1 [NADPH] |  |  |  | decrease the signal | further reduce the signal
